Results: PMC7679387, “VZHE-039, a novel antisickling agent that prevents erythrocyte sickling under both hypoxic and anoxic conditions” (Scientific Reports, 2020)
pIC50: −log10 of the molar value.

Legend:
Experiment in all cases: In vitro CYP inhibition, pooled human liver microsomes
Format in all cases: in vitro ADME
[1] = biological target: T1, CYP2C8 (Homo sapiens, UniProt P10632); conditions: substrate Amodiaquine
T1 construct: 0.2–0.5 mg/mL pooled human liver microsomes; from tissue; host or cells: pooled human liver microsomes
T1 sequence (P10632 1-490): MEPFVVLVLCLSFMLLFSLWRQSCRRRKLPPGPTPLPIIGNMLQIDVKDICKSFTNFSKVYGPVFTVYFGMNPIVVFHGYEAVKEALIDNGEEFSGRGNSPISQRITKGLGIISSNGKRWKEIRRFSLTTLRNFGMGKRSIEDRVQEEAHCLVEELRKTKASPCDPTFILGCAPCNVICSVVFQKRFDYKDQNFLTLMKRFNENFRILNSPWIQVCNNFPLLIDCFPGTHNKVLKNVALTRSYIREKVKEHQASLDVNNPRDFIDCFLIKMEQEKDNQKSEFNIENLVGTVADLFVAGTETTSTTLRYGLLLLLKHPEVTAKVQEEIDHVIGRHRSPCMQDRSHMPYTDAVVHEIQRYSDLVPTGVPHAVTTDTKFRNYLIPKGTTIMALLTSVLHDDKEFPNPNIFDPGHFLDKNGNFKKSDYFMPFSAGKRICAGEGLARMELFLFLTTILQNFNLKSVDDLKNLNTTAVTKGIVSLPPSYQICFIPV
Method: (§1) Next, we tested VZHE-039 at concentrations of 0.1 to 100 µM, considered to be biologically relevant unbound plasma concentrations, for possible CYP inhibition using pooled human liver microsomes and isozyme-specific probe substrates (CYP1A2, CYP2C8, CYP2C9, CYP2C19, CYP2D6, CYP3A4, CYP2B6)[55].
(§2) VZHE-039 was studied for its inhibitory potential of seven major drug metabolizing human cytochrome P450 (CYP) enzymes (CYP1A2, CYP2C8, CYP2C9, CYP2C19, CYP2D6, CYP3A4, CYP2B6) using pooled human liver microsomes as published previously[26],[55]. The probe substrates include tacrine (CYP1A2), amodiaquine (CYP2C8), tolbutamide (CYP2C9), mephenytoin (CYP2C19), dextromethorphan (CYP2D6), midazolam (CYP3A4), testosterone (CYP3A4), and bupropion (CYP2B6). […] Assay conditions were optimized for each human cytochrome P450 substrate. The optimized reaction mixtures (200 μL) contained a final concentration of 0.2–0.5 mg/mL pooled human liver microsomes, 2 mM NADPH in 100 mM potassium phosphate, pH 7.4 buffer with 5 mM MgCl2, and VZHE-039 concentration of 0.1 to 100 µM. The assays were performed in duplicate in 96-well plates at 37 °C for 10–60 min. The reaction was terminated with addition of methanol, followed by incubation at 4 °C for 10 min and centrifuged at 4 °C for 10 min. Effect of VZHE-039 on formation of the respective probe substrate metabolites (velnacrine, N‐desethylamodiaquine, 4-hydroxytolbutamide, 4′-hydroxymephenytoin, dextrophan, 1′-hydroxymidazolam, and 6β-hydroxtestosterone and hydroxybupropion) were determined using LC–MS/MS.

[2] = biological target: T2, CYP2B6 (Homo sapiens, UniProt P20813); conditions: substrate Bupropion
T2 construct: 0.2–0.5 mg/mL pooled human liver microsomes; from tissue; host or cells: pooled human liver microsomes
T2 sequence (P20813 1-491): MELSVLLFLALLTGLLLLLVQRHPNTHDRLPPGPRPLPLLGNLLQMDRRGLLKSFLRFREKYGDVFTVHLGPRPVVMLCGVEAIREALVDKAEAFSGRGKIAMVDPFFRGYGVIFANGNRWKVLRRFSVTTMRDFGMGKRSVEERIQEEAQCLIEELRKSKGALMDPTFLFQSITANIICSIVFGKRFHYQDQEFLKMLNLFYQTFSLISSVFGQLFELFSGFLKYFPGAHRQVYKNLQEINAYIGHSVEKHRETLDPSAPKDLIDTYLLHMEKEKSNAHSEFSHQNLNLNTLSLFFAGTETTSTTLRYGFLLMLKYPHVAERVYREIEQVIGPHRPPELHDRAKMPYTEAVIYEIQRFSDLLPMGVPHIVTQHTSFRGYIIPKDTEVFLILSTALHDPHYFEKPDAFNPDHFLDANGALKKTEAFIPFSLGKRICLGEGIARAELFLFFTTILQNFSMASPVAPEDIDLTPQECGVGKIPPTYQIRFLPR
Method: as §1, §2

[3] = biological target: T3, CYP3A4 (Homo sapiens, UniProt P08684)
T3 construct: 0.2–0.5 mg/mL pooled human liver microsomes; from tissue; host or cells: pooled human liver microsomes
Method: as §1, §2

[4] = biological target: T4, CYP2C9 (Homo sapiens, UniProt P11712); conditions: substrate Tolbutamide
T4 construct: 0.2–0.5 mg/mL pooled human liver microsomes; from tissue; host or cells: pooled human liver microsomes
Method: as §1, §2

[5] = biological target: T5, CYP2C19 (Homo sapiens, UniProt P33261); conditions: substrate S-Mephentoin
T5 construct: 0.2–0.5 mg/mL pooled human liver microsomes; from tissue; host or cells: pooled human liver microsomes
Method: as §1, §2

[6] = biological target: T6, CYP2D6 (Homo sapiens, UniProt P10635); conditions: substrate Dextromethorphan
T6 construct: 0.2–0.5 mg/mL pooled human liver microsomes; from tissue; host or cells: pooled human liver microsomes
Method: as §1, §2

T3 sequence (P08684 whole entry): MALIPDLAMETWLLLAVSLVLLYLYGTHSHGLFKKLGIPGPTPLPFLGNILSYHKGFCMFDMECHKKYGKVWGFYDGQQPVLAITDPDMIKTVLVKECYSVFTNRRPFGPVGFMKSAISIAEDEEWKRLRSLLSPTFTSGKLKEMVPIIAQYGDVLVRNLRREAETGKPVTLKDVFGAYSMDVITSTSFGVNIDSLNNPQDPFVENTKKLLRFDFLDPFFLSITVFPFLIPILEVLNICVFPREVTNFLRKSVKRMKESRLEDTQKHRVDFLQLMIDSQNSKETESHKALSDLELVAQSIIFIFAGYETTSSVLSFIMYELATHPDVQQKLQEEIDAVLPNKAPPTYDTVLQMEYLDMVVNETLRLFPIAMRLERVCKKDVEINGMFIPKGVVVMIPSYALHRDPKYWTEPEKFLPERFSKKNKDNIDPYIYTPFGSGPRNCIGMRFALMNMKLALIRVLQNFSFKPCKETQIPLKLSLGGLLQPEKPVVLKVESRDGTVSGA
T4 sequence (P11712 whole entry): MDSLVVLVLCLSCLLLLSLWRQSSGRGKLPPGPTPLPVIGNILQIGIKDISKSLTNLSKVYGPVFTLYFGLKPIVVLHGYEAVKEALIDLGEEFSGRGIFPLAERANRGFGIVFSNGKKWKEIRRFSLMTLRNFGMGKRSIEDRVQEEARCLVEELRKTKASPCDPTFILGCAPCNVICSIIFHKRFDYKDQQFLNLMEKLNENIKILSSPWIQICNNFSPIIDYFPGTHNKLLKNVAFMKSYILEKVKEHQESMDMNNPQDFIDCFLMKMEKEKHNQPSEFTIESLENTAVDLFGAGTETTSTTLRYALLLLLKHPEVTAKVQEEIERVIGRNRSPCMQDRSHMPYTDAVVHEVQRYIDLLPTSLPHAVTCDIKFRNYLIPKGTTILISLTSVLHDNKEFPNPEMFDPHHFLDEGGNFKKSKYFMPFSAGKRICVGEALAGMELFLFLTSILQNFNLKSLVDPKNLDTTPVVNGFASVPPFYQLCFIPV
T5 sequence (P33261 whole entry): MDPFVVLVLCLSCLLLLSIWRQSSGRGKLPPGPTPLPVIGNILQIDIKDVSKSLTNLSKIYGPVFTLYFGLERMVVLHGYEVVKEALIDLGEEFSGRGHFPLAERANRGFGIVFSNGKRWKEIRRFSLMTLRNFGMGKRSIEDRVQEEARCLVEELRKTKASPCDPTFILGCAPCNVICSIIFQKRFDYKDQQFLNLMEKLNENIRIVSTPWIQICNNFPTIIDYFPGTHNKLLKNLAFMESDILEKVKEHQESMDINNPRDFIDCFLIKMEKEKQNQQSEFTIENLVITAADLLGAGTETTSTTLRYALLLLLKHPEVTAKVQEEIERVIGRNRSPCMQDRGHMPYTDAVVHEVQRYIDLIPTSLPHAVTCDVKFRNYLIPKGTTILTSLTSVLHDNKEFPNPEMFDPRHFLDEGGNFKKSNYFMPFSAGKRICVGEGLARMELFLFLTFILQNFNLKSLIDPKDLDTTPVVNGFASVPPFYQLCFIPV
T6 sequence (P10635 whole entry): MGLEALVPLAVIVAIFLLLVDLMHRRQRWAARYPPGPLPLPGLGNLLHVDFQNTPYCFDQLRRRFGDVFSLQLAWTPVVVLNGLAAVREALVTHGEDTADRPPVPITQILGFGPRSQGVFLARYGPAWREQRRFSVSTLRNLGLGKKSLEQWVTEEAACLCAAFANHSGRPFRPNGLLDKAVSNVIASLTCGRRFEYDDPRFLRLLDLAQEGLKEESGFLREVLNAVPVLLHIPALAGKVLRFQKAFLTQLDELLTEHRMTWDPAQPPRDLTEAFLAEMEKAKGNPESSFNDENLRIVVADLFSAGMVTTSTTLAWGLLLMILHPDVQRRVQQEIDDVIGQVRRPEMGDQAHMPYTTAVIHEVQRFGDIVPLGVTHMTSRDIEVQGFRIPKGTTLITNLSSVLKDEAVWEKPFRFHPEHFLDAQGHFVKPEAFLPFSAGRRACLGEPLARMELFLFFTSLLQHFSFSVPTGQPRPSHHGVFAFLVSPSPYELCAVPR

What does the source list for `O=Cc1c(O)cccc1OCc1cccc(CO)n1` [VZHE-039, 2-((6-(Hydroxymethyl)pyridin-2-yl)methoxy)-6-hydroxybenzaldehyde]?
pIC50 [1]: < 4.00; pIC50 [2]: 4.38; pIC50 ([3]; substrate Midazolam): < 4.00; pIC50 ([3]; substrate Testosterone): 4.02; pIC50 [4]: < 4.00; pIC50 [5]: < 4.00; pIC50 [6]: < 4.00
